# Laboratory results taken from PMC8496750, “Identification of the organic anion transporting polypeptides responsible for the hepatic uptake of the major metabolite of epyrifenacil, S‐3100‐CA, in mice” (Pharmacology Research & Perspectives, 2021).
# Molecular target: T1, mouse Oatp1b2 (Mus musculus, UniProt Q9JJL3)
# T1 sequence (Q9JJL3 1-689): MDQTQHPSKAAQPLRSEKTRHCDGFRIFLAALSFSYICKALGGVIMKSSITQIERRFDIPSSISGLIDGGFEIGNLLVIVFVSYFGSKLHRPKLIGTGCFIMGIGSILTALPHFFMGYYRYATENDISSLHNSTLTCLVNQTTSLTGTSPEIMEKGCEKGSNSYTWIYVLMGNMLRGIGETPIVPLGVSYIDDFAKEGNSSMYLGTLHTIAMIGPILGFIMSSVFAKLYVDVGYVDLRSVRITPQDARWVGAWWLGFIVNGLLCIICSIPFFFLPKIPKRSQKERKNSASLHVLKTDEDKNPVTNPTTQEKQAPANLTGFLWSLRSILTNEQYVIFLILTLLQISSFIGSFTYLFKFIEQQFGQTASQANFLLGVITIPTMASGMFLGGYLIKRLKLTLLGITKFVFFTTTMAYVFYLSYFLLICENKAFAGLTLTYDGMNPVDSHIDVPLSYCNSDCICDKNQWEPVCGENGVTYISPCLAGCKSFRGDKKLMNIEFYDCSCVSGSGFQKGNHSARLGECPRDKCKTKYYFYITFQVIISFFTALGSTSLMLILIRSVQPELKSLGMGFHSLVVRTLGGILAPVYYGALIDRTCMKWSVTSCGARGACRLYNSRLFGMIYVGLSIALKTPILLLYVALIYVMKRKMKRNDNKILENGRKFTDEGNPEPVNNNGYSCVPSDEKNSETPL
# Assay: Inhibition of S‐3100‐CA uptake by OATP inhibitors, mouse Oatp1b2
# Assay type: in vitro ADME
# Design: expressed in transfected cells; host or cells: 293FT cells
# Conditions: inhibitor at 100 μM
# Description: 293FT cells were purchased from Thermo Fisher Scientific, Inc.. The cells were grown in Dulbecco's modified Eagle medium (supplemented with 4.5 g/L glucose and 2 mM L‐glutamine) at 37°C, 5% CO2, and 95% humidity. The cells were passaged 3 times per week by harvesting cells using trypsin and plating at a density of 1.0 × 10^4 cells/cm^2 in a 10 cm cell culture plate for maintenance culture. The 293FT cells were detached using trypsin and re‐seeded at a density of 2.5 × 10^4 cells/cm^2 in BioCoat™ Collagen I 6‐well plates (Corning Inc.) for transfection and then treated with 1.2 μg of plasmid vector and 3.2 μl of Lipofectamine™ 2000 Transfection Reagent (Thermo Fisher Scientific, Inc.) according to the manufacturer's instructions. After a 3‐h treatment, the transfection medium was replaced with a fresh cell culture medium and incubated at 37°C with 95% humidity and 5% CO2 until ready for the assay.
# Transport experiments were conducted approximately 24 h post‐transfection. […] From the lysate, 1.0 ml was transferred to a vial containing 10 ml of Emulsifier Scintillator Plus to measure the radioactivity in the LSC. The protein concentration of the cell lysate was also measured using a Pierce™ BCA Protein Assay Kit (Thermo Fisher Scientific, Inc.), which was used to normalize, according to the cell number, the radioactivity in the cell lysate extract. […]
smiles,measurement,value
"CO[C@H]1/C=C/O[C@@]2(C)Oc3c(C)c(O)c4c(O)c(c(/C=N/N5CCN(C)CC5)c(O)c4c3C2=O)NC(=O)/C(C)=C\C=C\[C@H](C)[C@H](O)[C@@H](C)[C@@H](O)[C@@H](C)[C@H](OC(C)=O)[C@@H]1C [RIF, Rifampicin]","Uptake of S‐3100‐CA, % of that by vehicle‐treated cells",less than 40%
